From patent US20240173241A1, “Multistable Photochromic Pigments For Intradermal Use” (THE REGENTS OF THE UNIVERSITY OF COLORADO, a body corporate, priority 2021, published 2024)

Test: UV activation of P-type photochromic dye in PMMA matrix in natural sunlight (ΔE*ab vs. time)
Format: physicochemical
Description: FIG. 5 is a set of six graphs (A-F) comparing measured and modeled data for the UV activation of P-type photochromic dyes with and without UV and color filters. The UV-activated color change is quantified by ΔE*ab in CIELAB chromaticity space for measured data, while it is expressed in terms of the relative concentration. [C], of the photoactivated species in the modeled data. (A) ΔE*ab vs. time for a P-type photochromic dye (1,2-Bis(2-methyl-5-phenyl-3-thienyl)-perfluorocyclopentenediarylethene, DAE-0001) embedded in a PMMA matrix in natural sunlight in Boulder, Colorado. The time to 85% complete activation, […], is 67 s. (B) ΔE*ab vs. time for DAE-0001 with 50% UV filter ([…] =142 s). […]
where [C] is the concentration of the photoactivated species (photostationary state), [S] is the concentration of the ground-state species, εS,λ is the molar absorptivity of the ground-state species at wavelength λ, εC,λ is the molar absorptivity of the photoactivated species at wavelength λ, φs is the quantum yield of the cycloreversion or deactivation, φC is the quantum yield of photoactivation, Iλ is the irradiance at wavelength λ, and l is the path length. […] The simulations agree well with measured data of its UV activation in natural sunlight in Boulder, Colorado, as shown in FIG. 5A and FIG. 5B. […]

With `Cc1sc(-c2ccccc2)cc1C1=C(c2cc(-c3ccccc3)sc2C)C(F)(F)C(F)(F)C1(F)F` [DAE-0001, 1,2-Bis(2-methyl-5-phenyl-3-thienyl)-perfluorocyclopentenediarylethene] the “time to 85% complete activation” value (embedded in a PMMA matrix, natural sunlight in Boulder, Colorado, no filter (FIG. 5A)) was 67 s and the “time to 85% complete activation” value (natural sunlight, with 50% UV filter (FIG. 5B)) was 142 s.
